Experimental data from patent publication US20170088878A1, “METHOD FOR THE GENERATION OF CHEMICAL LIBRARIES” (ETH ZURICH, priority 2014, published 2017).

Biological target: T1, HCV protease (Hepatitis C virus genotype 1a, UniProt P27958)
T1 construct: purchased ProteinOne
Experiment: biochemical
Procedure: The HCV protease assay kits were purchased from ProteinOne and experiments were performed according to the manual provided.
Assay solution (100 μL) was added to each well by a multichannel pipette (Eppendorf Research) and the fluorescence signals were recorded immediately.
Fluorescence signals were recorded at 90 min. The experiment was repeated in triplicate. IC50 was calculated via nonlinear regression using the software package GraphPad Prism 5.

T1 sequence (P27958 1027-1208, other chains not shown): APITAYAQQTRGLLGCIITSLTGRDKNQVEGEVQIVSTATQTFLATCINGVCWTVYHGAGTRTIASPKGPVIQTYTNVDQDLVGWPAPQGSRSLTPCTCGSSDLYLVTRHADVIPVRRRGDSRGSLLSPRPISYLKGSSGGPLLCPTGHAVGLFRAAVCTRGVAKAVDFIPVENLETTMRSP

**Q.** `CC(C)(C)OC(=O)CC[C@@H](CC(=O)C(=O)NCc1ccc(Cl)cc1)NC(=O)C[C@@H](NC(=O)C[C@@H](NC(=O)C[C@@H](NC(=O)CCC(=O)O)C1CCCCC1)C1CCCCC1)C1CCCCC1` [I^3-M^5-M^5-M^5-T^4] was tested. Which IC50 did it give?
**A.** 1000 nM
